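Step 1: Grow cells in 96-well plates. Step 2: Expose to compound for 48 hours at 5 concentrations. Step 3: Interpolate endpoints linearly; if unreached, use highest concentration. GI50 is the concentration that inhibits growth by half.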 Active and inactive are the calls of the source. No stated cut-off is given here; in the data, active = GI50 up to about 1.1 µM and inactive = higher.
Key:
Assay in all cases: NCI-60 cell line screen, 48 h
[1] = test system: SF-268
[2] = test system: MDA-MB-435
[3] = test system: SK-OV-3
[4] = test system: OVCAR-3
[5] = test system: RPMI-8226
[6] = test system: ACHN
[7] = test system: IGROV-1
[8] = test system: NCI-H522
[9] = test system: A549
[10] = test system: SW-620
[11] = test system: KM12
[12] = test system: SF-295
[13] = test system: TK-10
[14] = test system: T47D
[15] = test system: OVCAR-4
[16] = test system: SNB-75
[17] = test system: SF-539
[18] = test system: SK-MEL-28
[19] = test system: HCC 2998
[20] = test system: SNB-19

Measured: GI50

COC(=O)C(CCC1C=CN(S(=O)(=O)c2ccc(C)cc2)C1)/N=C/c1ccccc1 (stereo not given)
inactive: [1] 69.8 µM | [2] 33.2 µM | [3] 80 µM | [4] 35.9 µM | [5] 28.1 µM | [6] > 100 µM | [7] 38.4 µM | [8] 34.4 µM | [9] 42.4 µM | [10] 41.1 µM | [11] 34.8 µM | [12] 41.1 µM | [13] 83.2 µM | [14] 47.6 µM | [15] 46.1 µM | [16] 52.5 µM | [17] 38.6 µM | [18] 69.5 µM | [19] 43.1 µM | [20] 45 µM

CC1(C)C2CCC1(CC(=O)O)C(Cl)C2 (stereo not given)
inactive: [1] > 100 µM | [2] > 100 µM | [3] > 100 µM | [4] > 100 µM | [5] > 100 µM | [6] > 100 µM | [7] > 100 µM | [8] > 100 µM | [9] > 100 µM | [10] > 100 µM | [11] > 100 µM | [12] > 100 µM | [13] > 100 µM | [14] > 100 µM | [15] > 100 µM | [16] > 100 µM | [17] > 100 µM | [18] > 100 µM | [19] > 100 µM | [20] > 100 µM

COc1cc2nc3n(c2cc1OC)C(O)c1c(Cl)nc(SC)nc1S3 (stereo not given)
inactive: [1] 3.78 µM | [2] 4.01 µM | [3] 3.59 µM | [4] 3.12 µM | [5] 2.16 µM | [6] 3.3 µM | [7] 2.6 µM | [8] 1.72 µM | [9] 5.08 µM | [10] 3.33 µM | [11] 2.68 µM | [12] 7.4 µM | [13] 5.46 µM | [14] 3.8 µM | [15] 5.77 µM | [16] 4.47 µM | [17] 2.4 µM | [18] 6.19 µM | [19] 4.21 µM | [20] 6.47 µM

CCOc1cc(C2SCC(=O)N2c2ccc(Oc3ccc(Cl)cc3)c(Cl)c2)ccc1O (stereo not given)
inactive: [1] 15.4 µM | [2] 19 µM | [3] 21.6 µM | [4] 14 µM | [5] 14.7 µM | [6] 17.4 µM | [7] 15.9 µM | [8] 13.2 µM | [9] 17.9 µM | [10] 17 µM | [11] 16.9 µM | [12] 18.9 µM | [13] 17.6 µM | [14] 14.2 µM | [15] 16 µM | [16] 21.2 µM | [17] 16.1 µM | [18] 20 µM | [19] 17.9 µM | [20] 17.8 µM

CCOC(=O)Nc1ccc2c(c1)N(C(=O)CCN(CC)CC)c1ccccc1S2 [ETHACIZINE]
inactive: [1] 27.8 µM | [2] 29 µM | [3] 35 µM | [4] 30 µM | [5] 17.9 µM | [6] 29.8 µM | [7] 40.5 µM | [8] 65.8 µM | [9] 34.3 µM | [10] 25.4 µM | [11] 15.5 µM | [12] 22.1 µM | [13] 32.9 µM | [14] 27.4 µM | [15] 43.6 µM | [16] 2.09 µM | [17] 21.1 µM | [18] 28.5 µM | [19] 17.3 µM | [20] 47 µM

From ChEMBL document CHEMBL1201862, “PubChem BioAssay data set” (2004)
